{"source": "patent US20060135443A1", "about": "“Use of Na*/K*-ATPase inhibitors and antagonists thereof” (Bionaut Pharmaceuticals, Inc., priority 2004, published 2006)", "key": {"cancer cell lines": {"test_system": "cancer cell lines", "test": "proliferation of cancer cell lines", "assay_type": "cell-based", "conditions": "for decrease of concentration effective for inhibiting proliferation of cancer cells: in combination with a steroid signal modulator (Casodex)", "source_text": "The concentration at which a cardiac glycoside is effective as part of an antiproliferative treatment may be further decreased by combination with an additional agent that negatively regulates HIF-responsive genes, such as a redox effector or a steroid signal modulator. […] Therefore, in certain embodiments, the invention provides combination therapies of cardiac glycosides with, for example, steroid signal modulators and/or redox effectors. Additionally, cardiac glycosides may be combined with radiation therapy, taking advantage of the radiosensitizing effect that many cardiac glycosides have."}, "[1]": {"test_system": "A549(ROS) tumor cell line", "test": "ROS levels by FACS", "assay_type": "cell-based, human", "conditions": "normoxia, 4 hrs", "procedure": "(§1) Thirty minutes prior to the termination of incubation period, 2,7-dichlorofluorescin diacetate (CFH-DA, […]) was added to the cells and incubated for the last 30 min at 37° C. The ROS levels were determined by FACS analysis."}, "VEGF": {"test_system": "VEGF", "test": "VEGF secretion in tumor cells", "assay_type": "cell-based"}, "[2]": {"test_system": "Panc-1 human pancreatic tumors", "test": "Panc-1 human pancreatic tumor xenograft", "assay_type": "in vivo, nude mice", "conditions": "Gemcitabine 40 mg/kg q3d×4; for Final Tumor weight Day 25 (Mean): BNC1 20 mg/ml s.c. osmotic pump 0.5 μl/hr, n=8; for % TGI: Day 25, BNC1 20 mg/ml s.c. C.I.", "procedure": "(§2) Female nude mice (nu/nu) between 5 and 6 weeks of age weighing approximately 20 g were implanted subcutaneously (s.c.) by trocar with fragments of human tumors harvested from s.c. grown tumors in nude mice hosts. When the tumors were approximately 60-75 mg in size (about 10-15 days following inoculation), the animals were pair-matched into treatment and control groups. Each group contains 8-10 mice, each of which was ear tagged and followed throughout the experiment.\n(§3) The administration of drugs or controls began the day the animals were pair-matched (Day 1). Pumps (Alzet® Model 2002) with a flow rate of 0.5 μl/hr were implanted s.c. between the shoulder blades of each mice. Mice were weighed and tumor measurements were obtained using calipers twice weekly, starting Day 1. These tumor measurements were converted to mg tumor weight by standard formula, (W^2×L)/2. The experiment is terminated when the control group tumor size reached an average of about 1 gram. Upon termination, the mice were weighed, sacrificed and their tumors excised. The tumors were weighed and the mean tumor weight per group was calculated.\nThe control animals received pumps containing vehicle (50% DMSO in DMEM). The mice treated with standard chemotherapy agent received intra-peritoneal injections of Gemcitabine at 40 mg/kg every 3 days for 4 treatments (q3d×4). Each data point represent average tumor weight (n=8) and error bars indicate SEM.\nGem was also included in the experiment as a comparison."}, "[3]": {"test_system": "Caki-1 human renal cancer xenograft", "test": "Caki-1 human renal cancer xenograft", "assay_type": "in vivo, nude mice", "conditions": "for Final Tumor weight Day 22 (Mean): BNC1 20 mg/ml s.c. pump 0.5 μl/hr, n=10; for Final Tumor weight Day 22 (Mean) / % TGI: Cytoxan 100 or 300 ip; for % TGI: Day 22, BNC1 20 mg/ml s.c. C.I.", "procedure": "as §2, §3\nCytoxan (q1d×1) was injected at 100 mg/kg (Cyt 100) or 300 mg/kg (Cyt 300)."}, "[4]": {"test_system": "A549 human non-small-cell-lung carcinoma", "test": "A549 human non-small-cell-lung carcinoma xenograft", "assay_type": "in vivo, nude mice", "conditions": "for animals with tumor at the end of the experiment: 8 animals per group; for % Weight Change at Day 38 / Final Tumor weight Day 38 (Mean) / % TGI: Carboplatin 100 mg/kg ip qd×1; for % Weight Change at Day 38 / Final Tumor weight Day 38 (Mean): n=8; for % TGI: Day 38, BNC1 20 mg/ml s.c. C.I.", "procedure": "as §2, §3\nCarboplatin (q1d×1) was injected at 100 mg/kg (Carb)."}, "[5]": {"biological_target": "Na^+/K^+-ATPase α peptide isoforms", "conditions": "four α peptide isoforms, almost all mammalian species; cited from earlier work"}, "[6]": {"conditions": "cited from earlier work; for max. plasma concentration: in vivo"}, "[7]": {"test_system": "A549 (NSCLC) Sentinel Line", "test": "Sentinel Line reporter assay (FACS, FDG)", "assay_type": "cell-based, human", "conditions": "40 hrs; for cell death / reporter activity: agent alone; for cell death: Sentinel Lines; for reporter activity: mitoxantrone 8 nM, paclitaxel 1.5 nM, carboplatin 15 μM, gemcitabine 2.5 nM, Iressa 4 μM", "procedure": "The expression level of beta-galactosidase gene in sentinel lines was determined by using a fluorescent substrate fluorescein di-B-D-Galactopyranside (FDG, Marker Gene Tech, #M0250) introduced into cells by hypotonic shock. Cleavage by beta-galactosidase results in the production of free fluorescein, which is unable to cross the plasma membrane and is trapped inside the beta-gal positive cells. Briefly, the cells to be analyzed are trypsinized, and resuspended in PBS containing 2 mM FDG (diluted from a 10 mM stock prepared in 8:1:1 mixture of water: ethanol: DMSO). The cells were then shocked for 4 minutes at 37° C. and transferred to FACS tubes containing cold 1×PBS on ice. Samples were kept on ice for 30 minutes and analyzed by FACS in FL1 channel.\nSentinel Line cells with beta-galactosidase reporter gene were plated at 1×10^5 cells/10 cm dish. […] After 40 hrs, the cells were trypsinized and the expression level of reporter gene was determined by FDG loading.\nIn experiments of FIG. 10, the A549 sentinel line was incubated with Gemcitabine in the presence or absence of indicated Bionaut compounds (including the cardiac glycoside compound BNC4) for 40 hrs. The reporter activity was measured by FACS analysis."}, "[8]": {"biological_target": "purified sodium, potassium ATPase enzyme (Na-K ATPase)", "conditions": "read-out: IC50, displaced ouabain from its binding sites; Ferrari et al. 1998; cited from earlier work"}, "[9]": {"test_system": "other receptors involved in blood pressure regulation or hormonal control", "conditions": "Ferrari et al. 1998; cited from earlier work"}, "HIF-1α [10]": {"test_system": "HIF-1α", "test": "HIF-1α Western blot in tumor cells", "assay_type": "cell-based, human", "conditions": "Hep3B, Caki-1 or Panc-1 cells under hypoxia", "procedure": "For HIF1-alpha Western blots, Hep3B cells were seeded in growth medium at a density of 7×10^6 cells per 100 mm dish. […] Samples were fractionated on 3-8% Tris-Acetate gel (Invitrogen NUPAGE system) by sodium dodecyl sulfate (SDS)-polyacrylamide gel electropherosis and transferred onto nitrocellulose membrane. […] Anti-Beta-actin monoclonal antibody (Abcam, ab6276-100) was used at a 1:5000 dilution with a 30-minute incubation at room temperature.\nThe cells were lysed and proteins were resolved by SDS-PAGE and transferred to a nylon membrane.\nas §1"}, "HIF-1α [11]": {"test_system": "HIF-1α", "test": "HIF-1α induced under normoxia by PHD inhibitor L-mimosone, Western blot", "assay_type": "cell-based, human", "conditions": "Hep3B cells, 200 μM L-mimosone, 18 h", "procedure": "Abundance of HIF1α and β-actin was determined by western blotting."}}, "note": "“Also recorded” adds a separate entry of the source."}
{"smiles": "C[C@@H]1O[C@@H](O[C@H]2C[C@@H](O)[C@]3(CO)[C@H]4[C@H](O)C[C@]5(C)[C@@H](C6=CC(=O)OC6)CC[C@]5(O)[C@@H]4CC[C@]3(O)C2)[C@H](O)[C@H](O)[C@H]1O", "note": "[BNC1, ouabain]", "values": [{"measurement": "decrease of concentration effective for inhibiting proliferation of cancer cells", "setting": "cancer cell lines", "result": 5, "unit": "fold"}, {"measurement": "ROS production", "setting": "[1]", "result": "induces ROS production"}, {"measurement": "secretion of the angiogenesis factor VEGF", "setting": "VEGF", "result": "inhibits"}, {"measurement": "Final Tumor weight Day 25 (Mean)", "setting": "[2]", "result": 200, "unit": "mg"}, {"measurement": "tumor growth (in words)", "setting": "[2]; BNC1 20 mg/ml s.c. pump", "result": "significantly reduce tumor growth"}, {"measurement": "% TGI", "setting": "[2]", "result": 82.15, "unit": "%"}, {"measurement": "Final Tumor weight Day 22 (Mean)", "setting": "[3]", "result": 314.9, "unit": "mg"}, {"measurement": "anti-tumor activity (in words)", "setting": "[3]; BNC1 20 mg/ml s.c. pump, Cytoxan 100 or 300 mg/kg", "result": "potent anti-tumor agent when used alone"}, {"measurement": "% TGI", "setting": "[3]", "result": 81.45, "unit": "%"}, {"measurement": "animals with tumor at the end of the experiment", "setting": "[4]", "result": "none of the experimental animals showed any signs of tumor"}, {"measurement": "anti-tumor activity (in words)", "setting": "[4]; BNC1 20 mg/ml s.c. pump, Carboplatin 100 mg/kg", "result": "potent anti-tumor activity"}, {"measurement": "% Weight Change at Day 38", "setting": "[4]; BNC1 20 mg/ml s.c. pump", "result": 21, "unit": "%"}, {"measurement": "Final Tumor weight Day 38 (Mean)", "setting": "[4]; BNC1 20 mg/ml s.c. pump", "result": 0.0, "unit": "mg"}, {"measurement": "% TGI", "setting": "[4]", "result": 100.00, "unit": "%"}, {"measurement": "Kd", "setting": "[5]", "result": "≤ 0.001", "unit": "µM"}, {"measurement": "max. plasma concentration", "setting": "[6]", "result": "about 0.03 μg/mL"}]}
{"smiles": "N.N.O=C([O-])C1(C(=O)[O-])CCC1.[Pt+2]", "note": "[Carboplatin]", "values": [{"measurement": "cell death", "setting": "[7]", "result": "increases"}, {"measurement": "reporter activity", "setting": "[7]", "result": "increases"}, {"measurement": "animals with tumor at the end of the experiment", "setting": "[4]", "result": "all 8"}, {"measurement": "% Weight Change at Day 38", "setting": "[4]; BNC1 20 mg/ml s.c. pump", "result": 16, "unit": "%"}, {"measurement": "Final Tumor weight Day 38 (Mean)", "setting": "[4]; BNC1 20 mg/ml s.c. pump", "result": 509.75, "unit": "mg"}, {"measurement": "% TGI", "setting": "[4]", "result": 39.50, "unit": "%"}]}
{"smiles": "CC(=O)O[C@H]1C(=O)[C@@]2(C)[C@H]([C@H](OC(=O)c3ccccc3)[C@]3(O)C[C@H](OC(=O)[C@H](O)[C@@H](NC(=O)c4ccccc4)c4ccccc4)C(C)=C1C3(C)C)[C@]1(OC(C)=O)CO[C@@H]1C[C@@H]2O", "note": "[paclitaxel]", "values": [{"measurement": "cell death", "setting": "[7]", "result": "increases"}, {"measurement": "reporter activity", "setting": "[7]", "result": "increases"}]}
{"smiles": "O=C1c2c(O)ccc(O)c2C(=O)c2c(NCCNCCO)ccc(NCCNCCO)c21", "note": "[mitoxanthrone, mitoxantrone]", "values": [{"measurement": "cell death", "setting": "[7]", "result": "increases"}, {"measurement": "reporter activity", "setting": "[7]", "result": "increases"}]}
{"smiles": "CC12CCC(O)CC1CCC1C2CCC2(C)C(O)(c3ccoc3)CCC12O", "note": "(stereo not drawn) [PST 2238, 17beta-(3-furyl)-5beta-androstane-3beta, 14beta, 17alpha-triol]", "values": [{"measurement": "IC50", "setting": "[8]", "result": 1.7, "unit": "µM"}, {"measurement": "interaction with other receptors", "setting": "[9]", "result": "without interacting"}]}
{"smiles": "Nc1ccn([C@@H]2O[C@H](CO)[C@@H](O)C2(F)F)c(=O)n1", "note": "[Gemcitabine]", "values": [{"measurement": "reporter activity", "setting": "[7]", "result": "elevated reporter activity"}, {"measurement": "Final Tumor weight Day 25 (Mean)", "setting": "[2]", "result": 701.3, "unit": "mg"}, {"measurement": "% TGI", "setting": "[2]", "result": 37.40, "unit": "%"}]}
{"smiles": "O=P1(N(CCCl)CCCl)NCCCO1", "note": "(centres unmarked) [Cytoxan]", "values": [{"measurement": "Final Tumor weight Day 22 (Mean)", "setting": "[3]", "result": 769, "unit": "mg"}, {"measurement": "Final Tumor weight Day 22 (Mean)", "setting": "[3]; listed as Cytoxan300", "result": 93.7, "unit": "mg"}, {"measurement": "% TGI", "setting": "[3]", "result": 54.70, "unit": "%"}, {"measurement": "% TGI", "setting": "[3]; listed as Cytoxan300", "result": 94.48, "unit": "%"}]}
{"smiles": "C[C@@H]1O[C@@H](O[C@@H]2C=C3CC[C@@H]4[C@H](CC[C@]5(C)[C@@H](c6ccc(=O)oc6)CC[C@]45O)[C@@]3(C)CC2)[C@H](O)[C@H](O)[C@H]1O", "note": "[BNC4, proscillaridin]", "values": [{"measurement": "decrease of concentration effective for inhibiting proliferation of cancer cells", "setting": "cancer cell lines", "result": 5, "unit": "fold"}, {"measurement": "IC50", "setting": "cancer cell lines; test system not named at the place, read-out: predicted IC50", "result": "2 to 8", "unit": "ng/mL"}, {"measurement": "Gemcitabine-induced stress response (reporter activity)", "setting": "[7]; incubated with Gemcitabine plus compound", "result": "significantly shift the reporter activity to the left"}, {"measurement": "potency in inhibiting HIF-1α expression relative to BNC1", "setting": "HIF-1α [10]", "result": "about 10 times"}, {"measurement": "HIF-1α accumulation induced by L-mimosone", "setting": "HIF-1α [11]", "result": "blocks HIF-1α induction; also recorded: eliminated HIF-1α accumulation"}, {"measurement": "secretion of the angiogenesis factor VEGF", "setting": "VEGF", "result": "inhibits"}, {"measurement": "plasma half-life in human", "setting": "[6]; according to the literature", "result": "about 40 hours"}, {"measurement": "max. plasma concentration", "setting": "[6]", "result": "about 0.001 μg/mL"}]}
{"smiles": "COc1cc2ncnc(Nc3ccc(F)c(Cl)c3)c2cc1OCCCN1CCOCC1", "note": "[Iressa]", "values": [{"measurement": "reporter activity", "setting": "[7]", "result": "reduction"}]}
